# Experimental data reported in US7695930B2, “Method for the detection, identification and/or quantification of microoganisms with peptidase activity using phenoxazinone derivatives as enzyme substrates” (Biomerieux, priority 2003, dated 2010).
# Tests used:
# Type in all cases: cell-based
# Details in all cases: 50 mg/l
# [1] = test system: Acinetobacter baumanii; assay: Alanyl-peptidase detection on agar medium (Example 13)
# Experimental: (§1) The detection media were prepared by mixing 3.6 g of biogelytone (bioMérieux), 2.16 g of meat extract (bioMérieux), 1.26 g of malt extract (bioMérieux), 5.76 g of NaCl (Merck) and 10.8 g of agar (bioMérieux).
# (§2) 720 ml of osmosed water were added to the powder, and the mixture was then melted in a waterbath at […]. The product was separated into two flasks, each of 360 ml. Autoclaving was carried out at 121° C. for 15 min and the product was cooled to […]. in a waterbath.
# (§3) L-Alanyl-7-amino-4-methylcoumarin (Ala-AMC, Bachem) was then added to the first flask as a control, at the final concentration of 50 mg/l, and L-alanyl-9-aminobenzo[a]phenoxazin-5-one (Ala-ABP, substrate of the invention obtained in Example 2, in which the amino acid is L-alanine), was then added to the second flask at the final concentration of 25 mg/l.
# (§4) The size of the colonies, their coloration and also the intensity of this coloration were noted.
# [2] = test system: Bacillus subtilis; assay: as above
# Experimental: as §1, §2, §3, §4
# [3] = test system: Candida albicans; assay: as above
# Experimental: as §1, §2, §3, §4
# [4] = test system: Candida glabrata; assay: as above
# Experimental: as §1, §2, §3, §4
# [5] = test system: Candida krusei; assay: as above
# Experimental: as §1, §2, §3, §4
# [6] = test system: Corynebacterium Pseudodiphteriticum; assay: as above
# Experimental: as §1, §2, §3, §4
# [7] = test system: Edwardsiella tarda; assay: as above
# Experimental: as §1, §2, §3, §4
# [8] = test system: Enterobacter cloacae; assay: as above
# Experimental: as §1, §2, §3, §4
# [9] = test system: Enterococcus faecalis; assay: as above
# Experimental: as §1, §2, §3, §4
# [10] = test system: Enterococcus faecium; assay: as above
# Experimental: as §1, §2, §3, §4
# [11] = test system: Escherichia coli; assay: as above
# Experimental: as §1, §2, §3, §4
# [12] = test system: Hafnia alvei; assay: as above
# Experimental: as §1, §2, §3, §4
# [13] = test system: Klebsiella pneumoniae; assay: as above
# Experimental: as §1, §2, §3, §4
# [14] = test system: Listeria innocua; assay: as above
# Experimental: as §1, §2, §3, §4
# [15] = test system: Proteus mirabilis; assay: as above
# Experimental: as §1, §2, §3, §4
# [16] = test system: Pseudomonas aeruginosa; assay: as above
# Experimental: as §1, §2, §3, §4
# [17] = test system: Saccharomyces cerevisiae; assay: as above
# Experimental: as §1, §2, §3, §4
# [18] = test system: Salmonella typhimurium; assay: as above
# Experimental: as §1, §2, §3, §4
# [19] = test system: Serratia liquefaciens; assay: as above
# Experimental: as §1, §2, §3, §4
# [20] = test system: Serratia marcescens; assay: as above
# Experimental: as §1, §2, §3, §4
# [21] = test system: Staphylococcus aureus; assay: as above
# Experimental: as §1, §2, §3, §4
# [22] = test system: Staphylococcus epidermidis; assay: as above
# Experimental: as §1, §2, §3, §4
# [23] = test system: Staphylococcus saprophyticus; assay: as above
# Experimental: as §1, §2, §3, §4
# [24] = test system: Streptococcus agalactiae; assay: as above
# Experimental: as §1, §2, §3, §4
# [25] = test system: Streptococcus pyogenes; assay: as above
# Experimental: as §1, §2, §3, §4
# [26] = test system: Candida albicans; assay: Prolyl-peptidase detection on agar medium (Example 12); on color of the colony: key: B corresponds to fluorescent blue; R corresponds to pink
# Experimental: (§5) The detection media were prepared by mixing 1.68 g of yeast extract (bioMérieux), 1.4 g of biocase (bioMérieux), 1.26 g of malt extract (bioMérieux), 0.08 g of glucose (Merck) and 3.92 g of agar (bioMérieux).
# (§6) 280 ml of osmosed water were added to the powder, and the mixture was then melted in a waterbath at 100° C. The product was separated into two flasks, each of 140 ml. Autoclaving was carried out at 121° C. for 15 min and the product was cooled to 50° C. in a waterbath.
# (§7) L-Prolyl-7-amino-4-methylcoumarin (Pro-AMC, Bachem) was then added to the first flask as a control and L-prolyl-9-aminobenzo[a]phenoxazin-5-one (Pro-ABP, substrate of the invention obtained in Example 2, in which the amino acid is L-Proline) was then added to the second flask at the final concentration of 50 mg/l.
# as §4
# [27] = test system: Candida glabrata; assay: as above
# Experimental: as §5, §6, §7, §4
# [28] = test system: Candida guilliermondii; assay: as above; on color of the colony: key: B corresponds to fluorescent blue; R corresponds to pink
# Experimental: as §5, §6, §7, §4
# [29] = test system: Candida tropicalis; assay: as above
# Experimental: as §5, §6, §7, §4
# [30] = test system: Enterococcus faecalis; assay: as above
# Experimental: as §5, §6, §7, §4
# [31] = test system: Escherichia coli; assay: as above
# Experimental: as §5, §6, §7, §4
# [32] = test system: Klebsiella pneumoniae; assay: as above
# Experimental: as §5, §6, §7, §4
# [33] = test system: Saccharomyces cerevisiae; assay: as above
# Experimental: as §5, §6, §7, §4
# [34] = test system: Trichosporon beigelii; assay: as above; on color of the colony: key: B corresponds to fluorescent blue; R corresponds to pink
# Experimental: as §5, §6, §7, §4
# Wherever color of the colony is given: key: B corresponds to fluorescent blue; R corresponds to pink.
compound,measurement,setting,value
"Cc1cc(=O)oc2cc(NC(=O)[C@H](C)N)ccc12 [Ala-AMC, L-Alanyl-7-amino-4-methylcoumarin, reference compound]",growth diameter,[1]; 24 h,1.5 mm
same,"intensity of coloration, scale 0 to 4",[1]; 24 h,3
same,growth diameter,[1]; 48 h,1.5 mm
same,"intensity of coloration, scale 0 to 4",[1]; 48 h,3
same,growth diameter,[2]; 24 h,1.7 mm
same,growth diameter,[2]; 48 h,1.8 mm
same,growth diameter,[3]; 24 h,0.3 mm
same,growth diameter,[3]; 48 h,0.5 mm
same,"intensity of coloration, scale 0 to 4",[3]; 48 h,2
same,growth diameter,[4]; 24 h,0.2 mm
same,growth diameter,[4]; 48 h,0.3 mm
same,growth diameter,[5]; 24 h,0.7 mm
same,growth diameter,[5]; 48 h,1.5 mm
same,"intensity of coloration, scale 0 to 4",[5]; 48 h,0.25
same,growth diameter,[6]; 24 h,0 mm
same,growth diameter,[6]; 48 h,0.4 mm
same,"intensity of coloration, scale 0 to 4",[6]; 48 h,2
same,growth diameter,[7]; 24 h,0.4 mm
same,"intensity of coloration, scale 0 to 4",[7]; 24 h,3
same,growth diameter,[7]; 48 h,0.5 mm
same,"intensity of coloration, scale 0 to 4",[7]; 48 h,3
same,growth diameter,[8]; 24 h,0.5 mm
same,"intensity of coloration, scale 0 to 4",[8]; 24 h,3
same,growth diameter,[8]; 48 h,0.8 mm
same,"intensity of coloration, scale 0 to 4",[8]; 48 h,3
same,growth diameter,[9]; 24 h,0.3 mm
same,growth diameter,[9]; 48 h,0.4 mm
same,growth diameter,[10]; 24 h,0.2 mm
same,growth diameter,[10]; 48 h,0.3 mm
same,"intensity of coloration, scale 0 to 4",[10]; 48 h,0.25
same,growth diameter,[11]; 24 h,1.7 mm
same,"intensity of coloration, scale 0 to 4",[11]; 24 h,3
same,growth diameter,[11]; 48 h,1.7 mm
same,"intensity of coloration, scale 0 to 4",[11]; 48 h,3
same,growth diameter,[12]; 24 h,0.7 mm
same,"intensity of coloration, scale 0 to 4",[12]; 24 h,3
same,growth diameter,[12]; 48 h,0.7 mm
same,"intensity of coloration, scale 0 to 4",[12]; 48 h,3
same,growth diameter,[13]; 24 h,1.2 mm
same,"intensity of coloration, scale 0 to 4",[13]; 24 h,3
same,growth diameter,[13]; 48 h,1.8 mm
same,"intensity of coloration, scale 0 to 4",[13]; 48 h,3
same,growth diameter,[14]; 24 h,0.2 mm
same,growth diameter,[14]; 48 h,0.3 mm
same,growth diameter,[15]; 24 h,0.7 mm
same,"intensity of coloration, scale 0 to 4",[15]; 24 h,3
same,growth diameter,[15]; 48 h,0.7 mm
same,"intensity of coloration, scale 0 to 4",[15]; 48 h,3
same,growth diameter,[16]; 24 h,0.3 mm
same,growth diameter,[16]; 48 h,0.5 mm
same,"intensity of coloration, scale 0 to 4",[16]; 48 h,2
same,growth diameter,[17]; 24 h,0.1 mm
same,growth diameter,[17]; 48 h,0.2 mm
same,growth diameter,[18]; 24 h,1.3 mm
same,"intensity of coloration, scale 0 to 4",[18]; 24 h,3
same,growth diameter,[18]; 48 h,1.5 mm
same,"intensity of coloration, scale 0 to 4",[18]; 48 h,3
same,growth diameter,[19]; 24 h,0.7 mm
same,"intensity of coloration, scale 0 to 4",[19]; 24 h,3
same,growth diameter,[19]; 48 h,1.3 mm
same,"intensity of coloration, scale 0 to 4",[19]; 48 h,3
same,growth diameter,[20]; 24 h,0.5 mm
same,"intensity of coloration, scale 0 to 4",[20]; 24 h,3
same,growth diameter,[20]; 48 h,0.7 mm
same,"intensity of coloration, scale 0 to 4",[20]; 48 h,3
same,growth diameter,[21]; 24 h,0.5 mm
same,growth diameter,[21]; 48 h,0.7 mm
same,growth diameter,[22]; 24 h,0.3 mm
same,growth diameter,[22]; 48 h,0.4 mm
same,growth diameter,[23]; 24 h,0.3 mm
same,growth diameter,[23]; 48 h,0.4 mm
same,growth diameter,[24]; 24 h,0.1 mm
same,growth diameter,[24]; 48 h,0.2 mm
same,growth diameter,[25]; 24 h,0.1 mm
same,growth diameter,[25]; 48 h,0.2 mm
same,"intensity of coloration, scale 0 to 4",[25]; 48 h,3
L-prolyl-9-aminobenzo[a]phenoxazin-5-one [Pro-ABP],color of the colony,[26]; 24 h,R
same,growth diameter,[26]; 24 h,0.8 mm
same,"intensity of coloration, scale 0 to 4",[26]; 24 h,2
same,color of the colony,[26]; 48 h,R
same,growth diameter,[26]; 48 h,2.5 mm
same,"intensity of coloration, scale 0 to 4",[26]; 48 h,2
same,growth diameter,[27]; 24 h,0.4 mm
same,growth diameter,[27]; 48 h,1.8 mm
same,growth diameter,[28]; 24 h,0.3 mm
same,color of the colony,[28]; 48 h,R
same,growth diameter,[28]; 48 h,1.8 mm
same,"intensity of coloration, scale 0 to 4",[28]; 48 h,2
same,growth diameter,[29]; 24 h,1.2 mm
same,growth diameter,[29]; 48 h,1.8 mm
same,growth diameter,[30]; 24 h,0.7 mm
same,growth diameter,[30]; 48 h,0.7 mm
same,color of the colony,[31]; 24 h,R
same,growth diameter,[31]; 24 h,3 mm
same,"intensity of coloration, scale 0 to 4",[31]; 24 h,0.25
same,color of the colony,[31]; 48 h,R
same,growth diameter,[31]; 48 h,3 mm
same,"intensity of coloration, scale 0 to 4",[31]; 48 h,3
same,growth diameter,[32]; 24 h,2 mm
same,growth diameter,[33]; 24 h,0.5 mm
same,growth diameter,[33]; 48 h,2 mm
same,growth diameter,[34]; 24 h,0.5 mm
same,color of the colony,[34]; 48 h,R
same,growth diameter,[34]; 48 h,1.8 mm
same,"intensity of coloration, scale 0 to 4",[34]; 48 h,2
"Cc1cc(=O)oc2cc(NC(=O)[C@@H]3CCCN3)ccc12 [Pro-AMC, L-Prolyl-7-amino-4-methylcoumarin, reference compound]",growth diameter,[26]; 24 h,1.2 mm
same,"intensity of coloration, scale 0 to 4",[26]; 24 h,2
same,growth diameter,[26]; 48 h,2.5 mm
same,"intensity of coloration, scale 0 to 4",[26]; 48 h,3
same,growth diameter,[27]; 24 h,0.3 mm
same,growth diameter,[27]; 48 h,1.7 mm
same,growth diameter,[28]; 24 h,0.4 mm
same,growth diameter,[28]; 48 h,1.8 mm
same,"intensity of coloration, scale 0 to 4",[28]; 48 h,3
same,growth diameter,[29]; 24 h,1.2 mm
same,growth diameter,[29]; 48 h,2 mm
same,growth diameter,[30]; 24 h,0.8 mm
same,growth diameter,[30]; 48 h,1.2 mm
same,growth diameter,[31]; 24 h,3 mm
same,"intensity of coloration, scale 0 to 4",[31]; 24 h,0.5
same,growth diameter,[31]; 48 h,3 mm
same,"intensity of coloration, scale 0 to 4",[31]; 48 h,0.5
same,growth diameter,[32]; 24 h,2.5 mm
same,"intensity of coloration, scale 0 to 4",[32]; 24 h,0.25
same,growth diameter,[32]; 48 h,3 mm
same,"intensity of coloration, scale 0 to 4",[32]; 48 h,0.25
same,growth diameter,[33]; 24 h,0.3 mm
same,growth diameter,[33]; 48 h,1.7 mm
same,growth diameter,[34]; 24 h,0.7 mm
same,"intensity of coloration, scale 0 to 4",[34]; 24 h,0.25
same,growth diameter,[34]; 48 h,3 mm
same,"intensity of coloration, scale 0 to 4",[34]; 48 h,2
